Experimental data from article PMC7725824, “Fused isoselenazolium salts suppress breast cancer cell growth by dramatic increase in pyruvate-dependent mitochondrial ROS production” (Scientific Reports, 2020).
Read-outs that look alike come from different tables or passages of the source.

Columns and labels:
[1] = Cytotoxicity assay (MTT), 3T3; format: cell-based, mouse; conditions: mouse, normal cell line, mean ± S.D., 3 experiments
Method: (§1) MCF-7 (human breast adenocarcinoma, estrogen-positive) and 4T1 (mouse carcinoma), as breast cancer cell lines, and H9C2 (rat cardiomyoblasts), NIH 3T3 (mouse fibroblasts), HEKa (primary human epidermal keratinocytes), MDCK (Madin-Darby Canine Kidney) cells, and A7r5 (rat vascular smooth muscle cells), as normal cell lines, were obtained from the American Type Culture Collection [ATCC] collection for use in the current study. All cell lines were cultured in Dulbecco's modified Eagle's medium (DMEM) containing 10% fetal bovine serum (FBS) and 4 mM L-glutamine at 37 °C and 5% CO2.
(§2) Cell viability was assessed by the addition of 3-(4,5-dimethylthiazol-2-yl)-2,5-diphenyltetrazolinium bromide (MTT). Briefly, cells were seeded (2–6 × 10^4 cells/ml) in 96-well plates and allowed to attach for 24 h. Solutions of test compounds were prepared and serially diluted to obtain the appropriate concentrations. The cells were treated with the test compounds at different concentrations (0.032–100 µM) and incubated for 48 h at 37 °C and 5% CO2. Then, the culture medium was removed, and medium containing 0.2 mg/ml MTT was added. After 3 h (37 °C, 5% CO2), the MTT-containing medium was removed, and 200 μl of dimethyl sulfoxide (DMSO) was immediately added to each sample. The absorbance was assessed at 540 nm using a Tecan multiplate reader Infinite 1000 (Austria). The half-maximal inhibitory concentration (IC50) of each compound was calculated using Graph Pad Prism 3.0.

4T1 = experiment: Cytotoxicity assay (MTT), 4T1; format: cell-based, mouse; conditions: read-out: Cytotoxicity, IC50, 4T1
Method: as §1, §2

MCF-7 = experiment: Cytotoxicity assay (MTT), MCF-7; format: cell-based, human; conditions: for IC50: read-out: Cytotoxicity, IC50, MCF-7
Method: as §1, §2

[2] = Cytotoxicity assay (MTT), HEKa; format: cell-based, human; conditions: human, normal cell line, mean ± S.D., 3 experiments
Method: as §1, §2

[3] = Cytotoxicity assay (MTT), A7r5; format: cell-based, rat; conditions: rat, normal cell line, mean ± S.D., 3 experiments
Method: as §1, §2

[4] = Cytotoxicity assay (MTT), MDCK; format: cell-based, Canine; conditions: dog, normal cell line, mean ± S.D., 3 experiments
Method: as §1, §2

[5] = Cytotoxicity assay (MTT), H9C2; format: cell-based, rat; conditions: rat, normal cell line, MTT, 48 h, mean ± S.D., 3 experiments
Method: as §1, §2

NIH 3T3 = experiment: Cytotoxicity assay (MTT), 3T3; format: cell-based, mouse; conditions: normal cell line, 48 h, mean ± S.D., 3 experiments
Method: as §1, §2

HEKa = experiment: Cytotoxicity assay (MTT), HEKa; format: cell-based, human; conditions: normal cell line, 48 h, mean ± S.D., 3 experiments
Method: as §1, §2

A7r5 = experiment: Cytotoxicity assay (MTT), A7r5; format: cell-based, rat; conditions: normal cell line, 48 h, mean ± S.D., 3 experiments
Method: as §1, §2

MDCK = experiment: Cytotoxicity assay (MTT), MDCK; format: cell-based, Canine; conditions: normal cell line, 48 h, mean ± S.D., 3 experiments
Method: as §1, §2

H9C2 = experiment: Cytotoxicity assay (MTT), H9C2; format: cell-based, rat; conditions: for IC50: normal cell line, MTT, 48 h, mean ± S.D., 3 experiments
Method: as §1, §2

MCF-7 cells [6] = experiment: Fluorometric measurement of NMN level; format: cell-based, human; conditions: 2 μM, 10 min, vs control
Method: For fluorometric measurements of NMN, a previously described method was used, with minor modifications. […] The cells were washed with PBS and then lysed by adding 200 μl of 1 M HClO4 to each well and incubating at 4 °C for 20 min. The cells were harvested by scraping and transferred to a tube. The extracts were neutralized with 100 μl of 2 M KOH for 5 min at room temperature and 50 μl of 0.1 M bicine (pH 7.4) was added. The samples were centrifuged at 14 000 × g for 10 min at 4 °C, and the supernatant was collected for further analysis. The protein concentration in each sample was determined using a Bio-Rad protein assay kit. […] The reaction was incubated for 2 min at 4 °C, after which 45 μl of 88% formic acid was added, and the samples were incubated for another 10 min at 37 °C on a shaker. The fluorescence was measured using a Tecan multiplate reader Infinite 1000 (Austria) with excitation at 382 nm and emission at […].

MCF-7 cells [7] = experiment: NAD+/NADH assay kit measurement; format: cell-based, human; conditions: 2 μM, 10 min
Method: The NAD^+/NADH ratio in the MCF-7 cells exposed to the test compounds (2 μM) for 10 min was measured using an NAD^+/NADH assay kit (Abcam, ab65348) according to the manufacturer's instructions.

permeabilized 4T1 cells = experiment: High-resolution fluorespirometry (respiration and H2O2 flux); format: cell-based, mouse; conditions: 1 µM, pyruvate-dependent OXPHOS state
Method: High-resolution fluorespirometry was performed using an Oxygraph-2 k system (OROBOROS INSTRUMENTS, Austria). All experiments were performed at 37 °C in MiR05 medium (110 mM sucrose, 60 mM K-lactobionate, 0.5 mM EGTA, 3 mM MgCl2, 20 mM taurine, 10 mM KH2PO4, 20 mM HEPES, pH 7.1 at 30 °C, and 0.1% BSA essentially fatty acid free). The medium was reoxygenated when the oxygen concentration dropped to 80 µM. H2O2 flux was simultaneously measured with respirometry in the O2k-Fluorometer using the H2O2-sensitive probe Ampliflu Red (AmR) as described. The H2O2/O flux ratio [%] was calculated as the H2O2 flux/(0.5 O2 flux).
In permeabilized 4T1 cells, pyruvate + malate (5 and 2 mM) or glutamate + malate (10 and 2 mM) were used to determine complex I (CI)-linked LEAK (L) respiration. ADP was added to a concentration of 5 mM to determine the oxidative phosphorylation-dependent respiration (OXPHOS state). Succinate (10 mM, complex II (CII) substrate) was then added to reconstitute convergent CI&II-linked respiration. Rotenone (0.5 µM, an inhibitor of complex I) and antimycin A (2.5 µM, an inhibitor of complex III) were added to determine the CII-linked OXPHOS capacity and residual oxygen consumption (ROX), respectively. Compound 6 was added to permeabilized cells after the addition of the respective substrates in the OXPHOS state (titration experiment) or in the LEAK state. In addition, compounds 3, 6 and 7 were tested at 1 µM in the OXPHOS coupling protocol in the LEAK state. The OXPHOS coupling efficiency was calculated as: 1-Resp.rateLEAKstate/Resp.rateOXPHOSstate
The substrate-dependent flux control factor was calculated as: 1-Resp.ratebeforeadditionofrespectivesubstrate/Resp.rateafteradditionofrespectivesubstrate

[8] = Mus musculus, 4T1, breast cancer cell line, MTT, 48 h, mean ± S.D., 3 experiments
[9] = Homo sapiens, MCF7, breast cancer cell line, MTT, 48 h, mean ± S.D., 3 experiments
[10] = HEKa cells (primary epidermal keratinocytes)
[11] = A7r5 cells (vascular smooth muscle cells)
[12] = breast cancer cell line, MTT, 48 h, mean ± S.D., 3 experiments

With `OC1(c2[se][n+]3ccccc3c2Br)CCCCCC1.[Br-]` [Compound 5, 3-Bromo-2-(1-hydroxycycloheptyl)-[1,2]selenazolo[2,3-a]pyridinium bromide] as the compound, how does the IC50 at 48 h ([1]; NIH 3T3 cells (fibroblasts)) read?
The IC50 at 48 h was 980 ± 30 nM.

What about the IC50 (4T1; [8]) of the same compound?
The IC50 was 410 ± 50 nM.

And the IC50 (MCF-7; [9])?
Its IC50 is 290 ± 10 nM.

What about the “increase of cytotoxicity against MCF-7 cells” value (MCF-7; cycloheptyl (5) versus cyclohexyl (4)) of the same compound?
The value was “approximately 3 times”.

And the IC50 at 48 h [2, 10]?
Its IC50 at 48 h is 2010 ± 80 nM.

And the IC50 at 48 h [3, 11]?
Its IC50 at 48 h is 1920 ± 440 nM.

And the IC50 at 48 h ([4]; MDCK cells)?
The IC50 at 48 h was 1510 ± 370 nM.

And the IC50 at 48 h ([5]; H9C2 cells (cardiomyoblasts))?
The IC50 at 48 h was 9300 ± 200 nM.

Which results are given for `Cc1cc[n+]2[se]c(C3(O)CCCCC3)c(Br)c2c1` [Compound 4, 3-bromo-2-(1-hydroxycyclohexyl)-5-methyl-[1,2]selenazolo[2,3-a]pyridin-8-ium]?
IC50 at 48 h ([1]; NIH 3T3 cells (fibroblasts)): 790 ± 20 nM; IC50 (4T1; [8]): 450 ± 20 nM; IC50 (MCF-7; [9]): 1480 ± 40 nM; IC50 at 48 h [2, 10]: 2050 ± 50 nM; IC50 at 48 h [3, 11]: 1930 ± 160 nM; IC50 at 48 h ([4]; MDCK cells): 2540 ± 570 nM; IC50 at 48 h ([5]; H9C2 cells (cardiomyoblasts)): 2900 ± 100 nM

With “3-bromo-2-(2-hydroxy-2-methylethyl)-[1,2]selenazolo[2,3-a]pyridinium chloride [Compound 1]” as the compound, how does the IC50 (NIH 3T3) read?
Its IC50 is 130 ± 20 nM.

What about the IC50 (4T1; [12]) of the same compound?
The IC50 was 300 ± 30 nM.

And the IC50 (MCF-7; [12])?
Its IC50 is 3100 ± 30 nM.

And the IC50 (HEKa)?
Its IC50 is 2310 ± 20 nM.

And the IC50 (A7r5)?
Its IC50 is 2890 ± 420 nM.

What about the IC50 (MDCK) of the same compound?
Its IC50 is 3260 ± 400 nM.

And the IC50 (H9C2)?
The IC50 was 1800 ± 100 nM.

What does the source list for `OC(c1ccccc1)(c1ccccc1)c1[se][n+]2ccccc2c1Br` [Compound 2, 3-bromo-2-(hydroxydiphenylmethyl)-[1,2]selenazolo[2,3-a]pyridin-8-ium]?
IC50 at 48 h ([1]; NIH 3T3 cells (fibroblasts)): 1600 ± 300 nM; IC50 (4T1; [8]): 1100 ± 80 nM; IC50 (MCF-7; [9]): 390 ± 30 nM; IC50 at 48 h [2, 10]: 2780 ± 80 nM; IC50 at 48 h [3, 11]: 1870 ± 260 nM; IC50 at 48 h ([4]; MDCK cells): 6270 ± 290 nM; IC50 at 48 h ([5]; H9C2 cells (cardiomyoblasts)): 4200 ± 300 nM

Which IC50 at 48 h ([1]; NIH 3T3 cells (fibroblasts)) does the source give for `COc1cccc2c1C(=O)c1c(O)c3c(c(O)c1C2=O)C[C@@](O)(C(=O)CO)C[C@@H]3O[C@H]1C[C@H](N)[C@H](O)[C@H](C)O1` [Doxorubicin, reference compound] here?
The IC50 at 48 h was 750 ± 90 nM.

What about the IC50 (4T1; [8]) of the same compound?
Its IC50 is 160 ± 60 nM.

What about the IC50 (MCF-7; [9]) of the same compound?
Its IC50 is 1000 ± 300 nM.

And the IC50 at 48 h [3, 11]?
Its IC50 at 48 h is 1820 ± 350 nM.

What about the IC50 at 48 h ([4]; MDCK cells) of the same compound?
Its IC50 at 48 h is 57000 ± 6100 nM.

And the IC50 at 48 h ([5]; H9C2 cells (cardiomyoblasts))?
Its IC50 at 48 h is 11000 ± 1000 nM.

What about the “IC50 values in tumor cells versus cardiomyocytes, fold lower” value (H9C2; tumor cells versus cardiomyocytes) of the same compound?
Its value is 10–100 fold.

Which “decrease in NMN levels” value (MCF-7 cells [6]) does the source give for `Cn1cc[n+]2[se]c(C3(O)CCCCC3)c(Br)c12` [Compound 7, 3-bromo-N-methyl-2-(1-hydroxycyclohexyl)[1,2]selenazolo[2,3-b]imidazolium bromide] here?
Its value is “not”.

And the IC50 at 48 h [1]?
The IC50 at 48 h was 2200 ± 300 nM.

And the “NAD+/NADH ratio higher than in untreated cells” value (MCF-7 cells [7])?
Its value is 1.65 times.

And the “decrease in NAD+ level” value (MCF-7 cells [7]; vs control)?
Its value is “without affecting”.

And the “decrease in NADH level” value (MCF-7 cells [7]; vs control)?
The value was “induced a decrease”.

And the IC50 (4T1; Mus musculus, 4T1, 48 h)?
The IC50 was 940 ± 60 nM.

And the IC50 (MCF-7; Homo sapiens, MCF7, 48 h)?
The IC50 was 1480 ± 20 nM.

What about the IC50 at 48 h [2] of the same compound?
The IC50 at 48 h was 2190 ± 90 nM.

And the “increase in H2O2/O ratio” value (permeabilized 4T1 cells)?
The value was “immediate significant increases”.

What about the “increase in H2O2 production” value (permeabilized 4T1 cells) of the same compound?
Its value is “immediate significant increases”.

What about the IC50 at 48 h [3] of the same compound?
The IC50 at 48 h was 1660 ± 250 nM.

And the IC50 at 48 h [4]?
The IC50 at 48 h was 4280 ± 340 nM.

What about the IC50 at 48 h [5] of the same compound?
Its IC50 at 48 h is 670 ± 20 nM.

For `O=[Se](O)O` [Na2SeO3, Sodium selenite, reference compound], which IC50 (NIH 3T3) is on record?
The IC50 was 22300 ± 3600 nM.

And the IC50 (4T1; [12])?
Its IC50 is 4900 ± 600 nM.

What about the IC50 (MCF-7; [12]) of the same compound?
Its IC50 is 17100 ± 2400 nM.

And the IC50 (HEKa)?
Its IC50 is 13300 ± 1100 nM.

And the IC50 (A7r5)?
Its IC50 is 39400 ± 8200 nM.

What about the IC50 (MDCK) of the same compound?
The IC50 was 6300 ± 400 nM.

And the IC50 (H9C2)?
The IC50 was 1500 ± 300 nM.
